Results: BigSolDB 2.1

O=C(O)Cc1ccccc1[N+](=O)[O-]
solubility (mole fraction)
Details	283.15 K	288.15 K	293.15 K	298.15 K	303.15 K	308.15 K	313.15 K	318.15 K	323.15 K	328.15 K
in 1,4-dioxane	–	0.0461	0.0535	0.0618	0.0732	0.0853	0.1	0.118	0.139	0.162
in DMF	0.18	0.202	0.222	0.249	0.277	0.308	0.338	0.371	0.406	0.445
in acetonitrile	0.0143	0.016	0.0184	0.0219	0.0255	0.0304	0.0365	0.0437	0.0515	0.0604
in cyclohexane	8.88e-06	1.22e-05	1.65e-05	2.23e-05	2.94e-05	3.79e-05	4.9e-05	6.35e-05	8.34e-05	0.000108
in ethanol	0.0273	0.0317	0.0367	0.0432	0.0516	0.0627	0.0743	0.0878	0.104	0.123
in ethyl acetate	0.0285	0.0323	0.0383	0.0453	0.055	0.0651	0.0764	0.0877	0.0979	0.11
in ethylene glycol	0.0148	0.0175	0.0208	0.0245	0.0287	0.0337	0.0399	0.0473	0.0561	0.0664
in isobutanol	0.00864	0.0106	0.0134	0.0169	0.0218	0.0271	0.033	0.0394	0.0465	0.0573
in isopropanol	0.0154	0.0182	0.0216	0.0253	0.0302	0.035	0.0414	0.0482	0.0564	0.0665
in methanol	0.0409	0.0455	0.0521	0.0584	0.0673	0.0769	0.0887	0.102	0.117	0.134
in n-butanol	0.0168	0.0198	0.0233	0.0271	0.0323	0.0382	0.0451	0.0533	0.0618	0.0742
in n-propanol	0.0181	0.0219	0.0263	0.0312	0.037	0.0441	0.0533	0.0637	0.0767	0.0934
in water	5.33e-05	7.8e-05	0.000105	0.000141	0.000185	0.000248	0.000321	0.000426	0.000554	0.000727
